Measurements: ChEMBL document CHEMBL1135181, “Synthesis and anti-influenza virus activity of 7-O-alkylated derivatives related to zanamivir” (Bioorg Med Chem Lett, 2002)

How the values were obtained:
Influenza A virus [1] = assay: In vitro antiviral activity against Influenza A.; type: functional, organism-based
[2] = target: Neuraminidase (Influenza A virus (A/Puerto Rico/8/1934(H1N1)), UniProt P03468); assay: Inhibition of influenza A sialidase in vitro.
Influenza A virus [3] = assay: Inhibitory concentration by Plaque reduction assay; range-1.9-20; type: functional, organism-based
Influenza A virus [4] = assay: Inhibitory concentration by Plaque reduction assay; range-1.9-12; type: functional, organism-based

Neuraminidase (Influenza A virus (A/Puerto Rico/8/1934(H1N1)), UniProt P03468), sequence (P03468 whole entry): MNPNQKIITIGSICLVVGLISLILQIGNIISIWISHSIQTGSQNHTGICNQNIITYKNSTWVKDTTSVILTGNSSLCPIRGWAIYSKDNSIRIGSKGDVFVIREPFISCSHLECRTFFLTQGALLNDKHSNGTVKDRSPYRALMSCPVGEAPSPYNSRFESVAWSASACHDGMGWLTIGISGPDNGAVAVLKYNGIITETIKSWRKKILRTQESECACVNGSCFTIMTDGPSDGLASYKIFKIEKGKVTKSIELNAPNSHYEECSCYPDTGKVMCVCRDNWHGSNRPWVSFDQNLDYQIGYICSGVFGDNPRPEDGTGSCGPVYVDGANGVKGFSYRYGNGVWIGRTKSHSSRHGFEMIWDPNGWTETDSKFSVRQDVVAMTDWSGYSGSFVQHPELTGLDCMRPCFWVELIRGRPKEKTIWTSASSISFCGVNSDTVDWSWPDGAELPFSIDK

CC(=O)N[C@H]1[C@H]([C@H](OCC2CCCCC2)[C@H](O)CO)OC(C(=O)O)=C[C@@H]1NC(=N)N.O=C(O)C(F)(F)F
IC50 (Influenza A virus [1]): 3 ng/mL
IC50 [2]: 67.5 nM

CCO[C@H](CC)[C@@H]1OC(C(=O)O)=C[C@H](N=C(N)N)[C@H]1NC(C)=O.O=C(O)C(F)(F)F
IC50 (Influenza A virus [1]): 16 ng/mL
IC50 [2]: 79.3 nM

CCCCCCCCCCCCO[C@@H]([C@@H]1OC(C(=O)O)=C[C@H](N=C(N)N)[C@H]1NC(C)=O)[C@H](O)CO.O=C(O)C(F)(F)F
IC50 (Influenza A virus [1]): 2.2 ng/mL
IC50 [2]: 80.7 nM

CCCO[C@@H]([C@@H]1OC(C(=O)O)=C[C@H](N=C(N)N)[C@H]1NC(C)=O)[C@H](O)CO.O=C(O)C(F)(F)F
IC50 (Influenza A virus [1]): 1.5 ng/mL
IC50 [2]: 62.7 nM

CCCO[C@H](CC)[C@@H]1OC(C(=O)O)=C[C@H](N=C(N)N)[C@H]1NC(C)=O.O=C(O)C(F)(F)F
IC50 (Influenza A virus [1]): 9 ng/mL
IC50 [2]: 30.9 nM

CCCCCCCCCCCCO[C@H](CC)[C@@H]1OC(C(=O)O)=C[C@H](N=C(N)N)[C@H]1NC(C)=O.O=C(O)C(F)(F)F
IC50 (Influenza A virus [1]): > 50 ng/mL
IC50 [2]: 48.7 nM

CC(=O)NCCO[C@@H]([C@@H]1OC(C(=O)O)=C[C@H](N=C(N)N)[C@H]1NC(C)=O)[C@H](O)CO.O=C(O)C(F)(F)F
IC50 (Influenza A virus [1]): 2.4 ng/mL
IC50 [2]: 18.4 nM

CCCCCCCCO[C@H](CC)[C@@H]1OC(C(=O)O)=C[C@H](N=C(N)N)[C@H]1NC(C)=O.O=C(O)C(F)(F)F
IC50 (Influenza A virus [1]): 40 ng/mL
IC50 [2]: 31.5 nM

CCO[C@@H]([C@@H]1OC(C(=O)O)=C[C@H](N=C(N)N)[C@H]1NC(C)=O)[C@H](O)CO
IC50 [2]: 55.7 nM

CC(=O)N[C@H]1[C@H]([C@H](OCCN)[C@H](O)CO)OC(C(=O)O)=C[C@@H]1NC(=N)N.O=C(O)C(F)(F)F
IC50 (Influenza A virus [1]): 7.5 ng/mL
IC50 [2]: 97.5 nM

CCCCCO[C@H](CC)[C@@H]1OC(C(=O)O)=C[C@H](N=C(N)N)[C@H]1NC(C)=O.O=C(O)C(F)(F)F
IC50 (Influenza A virus [1]): 3.8 ng/mL
IC50 [2]: 18.8 nM

CCCCCCCCCCCCCCO[C@@H]([C@@H]1OC(C(=O)O)=C[C@H](N=C(N)N)[C@H]1NC(C)=O)[C@H](O)CO.O=C(O)C(F)(F)F
IC50 (Influenza A virus [1]): 11 ng/mL
IC50 [2]: 408 nM

CC(=O)N[C@H]1[C@H]([C@H](OCCO)[C@H](O)CO)OC(C(=O)O)=C[C@@H]1NC(=N)N.O=C(O)C(F)(F)F
IC50 (Influenza A virus [1]): 1.8 ng/mL
IC50 [2]: 21 nM

CC(=O)N[C@H]1[C@H]([C@H](OCCC2CCCCC2)[C@H](O)CO)OC(C(=O)O)=C[C@@H]1NC(=N)N.O=C(O)C(F)(F)F
IC50 (Influenza A virus [1]): 1.9 ng/mL
IC50 [2]: 47.3 nM

CCCCCCCCO[C@@H]([C@@H]1OC(C(=O)O)=C[C@H](N=C(N)N)[C@H]1NC(C)=O)[C@H](O)CO.O=C(O)C(F)(F)F
IC50 (Influenza A virus [1]): 1.8 ng/mL
IC50 [2]: 36.2 nM

CCCCCO[C@@H]([C@@H]1OC(C(=O)O)=C[C@H](N=C(N)N)[C@H]1NC(C)=O)[C@H](O)CO.O=C(O)C(F)(F)F
IC50 (Influenza A virus [1]): 2 ng/mL
IC50 [2]: 27.7 nM

CC(=O)N[C@H]1[C@H]([C@H](OCCN=[N+]=[N-])[C@H](O)CO)OC(C(=O)O)=C[C@@H]1NC(=N)N.O=C(O)C(F)(F)F
IC50 (Influenza A virus [1]): 1.5 ng/mL
IC50 [2]: 28.7 nM

CC(=O)N[C@H]1[C@H]([C@H](O)[C@H](O)CO)OC(C(=O)O)=C[C@@H]1NC(=N)N.O=C(O)C(F)(F)F [ZANAMIVIR TFA]
IC50 (Influenza A virus [3]): 1.9 ng/mL
IC50 (Influenza A virus [4]): 1.9 ng/mL
